Test: free radical inhibition assay: inhibition of polymerization of acrylic acid to polyacrylic acid
Details: for % Polymerization (after 3 hours at 85° C.): 30% acrylic acid in water, 200 ml, 0.6 ml of 1% inhibitor solution, initiated with azobisisobutyronitrile, remaining acrylic acid by iodine value
Excerpt: A presently preferred method for determining the free radical inhibitory capacity of a compound is based on the ability of such a compound to inhibit free radical polymerization of acrylic acid to polyacrylic acid. […] As will be appreciated, the amount of polyacrylic acid formed is inversely related to the amount of acrylic acid (i.e., monomer) remaining in the reaction mixture at the end of the assay. The amount of acrylic acid may be routinely determined by measuring the iodine value of the reaction mixture or by other methods known in the art for determinating unsaturation. A well-known free radical inhibitor compound such as hydroquinone mono methyl ether (HQMME) may be used as a standard inhibitor compound in the assay.
Into each of three 250 ml beakers, labeled “1,” “2,” and “3” respectively, is added 200 ml of a 30% solution of acrylic acid (in water). One-tenth gram of 1,3-di(3-methoxybenzyl)thiourea was dissolved in 9.9 grams of isopropyl alcohol to give a 1% (w/w) solution of the free radical inhibitor compound. […] One-tenth gram of azobisisobutyronitrile (a free radical initiator) was dissolved in 9.9 grams of isopropyl alcohol to provide a 1% solution of the free radical initiator. To beaker 1, containing 200 ml of the acrylic acid solution was added 0.6 ml of the 1% solution of 1,3-di(3-methoxybenzyl)thiourea. To beaker 2, containing 200 ml of the acrylic acid solution was added 0.6 ml of the 1% solution of hydroquinone mono methyl ether. To beaker 3 was added 0.6 ml of isopropyl alcohol (no inhibitor). […] After 3 hours, the beakers were removed from the hot plate to stop the reaction from progressing further, and the amount of acrylic acid which remained in the reaction mixture was determined by measuring the iodine value of an aliquot of the reaction mixture using the A.O.C.S. Method Tg 1a-64T in Official Methods And Recommended Practices Of The AOCS, by American Oil Chemists' Society, Champaign, Ill.

COc1ccc(O)cc1 [hydroquinone mono methyl ether, reference compound]
% Polymerization (after 3 hours at 85° C.): 78.6%

COc1cccc(CNC(=S)NCc2cccc(OC)c2)c1 [1,3-di(3-methoxybenzyl)thiourea, 1,3-di-(3-methoxybenzyl) thiourea]
% Polymerization (after 3 hours at 85° C.): 48.6% | inhibition of the free radical polymerization reaction (in words) (assay of Example 10, 85° C., 3 hours): strongly inhibited

Reference: patent US6545052B2, “Methods and compositions for inhibiting free radical polymerization in skin and hair” (Fan Tech, Ltd., priority 2000, dated 2003)
